Assay results taken from patent US6077519A, “Methods for isolation and use of T cell epitopes eluted from viable cells in vaccines for treating cancer patients” (University of Pittsburgh, priority 1997, dated 2000).
“Also recorded” adds a separate entry of the source. Ends that are not written are not given here.

Assays:
HLA-A2 [1] = target: T1, HLA-A2 (Homo sapiens, UniProt P04439); assay: HLA-A2 stabilization assay on T2 cells; format: binding; conditions: MA2.1
T1 construct: peptide stabilization read with MA2.1 by flow cytometry
T1 sequence (P04439 25-365): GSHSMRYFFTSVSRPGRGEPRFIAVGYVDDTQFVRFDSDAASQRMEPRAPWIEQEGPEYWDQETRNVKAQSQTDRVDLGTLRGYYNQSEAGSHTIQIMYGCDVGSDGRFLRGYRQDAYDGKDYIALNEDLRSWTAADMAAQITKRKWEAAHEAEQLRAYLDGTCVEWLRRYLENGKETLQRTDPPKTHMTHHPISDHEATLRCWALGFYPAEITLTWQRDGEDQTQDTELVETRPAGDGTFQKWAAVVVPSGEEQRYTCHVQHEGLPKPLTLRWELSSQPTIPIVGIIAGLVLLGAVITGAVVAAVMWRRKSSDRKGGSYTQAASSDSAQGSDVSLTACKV
T1 sequence (P61769 21-119 partner): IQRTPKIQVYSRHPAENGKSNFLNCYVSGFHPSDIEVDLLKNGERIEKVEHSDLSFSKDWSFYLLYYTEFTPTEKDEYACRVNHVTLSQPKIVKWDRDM

Mel 624 [2] = assay: induction of anti-melanoma CTL from melanoma patient PBMC by peptide-pulsed autologous DC, lysis of Mel 624; format: cell-based, human; conditions: for Patient PBL Response (responders/patients): lysis of Mel 624 >20% at E:T 10:1, >80% inhibited by BB7.2
Text: Heparinized peripheral blood was obtained by venipuncture from 15 HLA-A2^+ normal donors and 10 HLA-A2^+ donors with AJCC Stage III or IV melanoma treated at the University of Pittsburgh Cancer Institute/University of Pittsburgh School of Medicine. Peripheral blood mononuclear cells ("PBMC") were obtained after density centrifugation on Ficoll-Hypaque gradients per the manufacturer's protocol (LSM, Organon-Teknika, Durham, N.C.). […] Non-adherent cells were frozen in liquid nitrogen in 90% fetal bovine serum/10% DMSO and were retained as T cell enriched responder populations. Plastic adherent cells were cultured for 5-7 days in AIM-V medium supplemented with 1000 U rIL-4/ml+1000 U rGM-CSF/ml at 37° C., 5% CO2 and served as the source of autologous dendritic cells. No medium was added or removed during this culture period. […] Gradient interface cells were harvested, washed with HBSS, and used in phenotypic and functional assays, as outlined below. Cells generated in this way were determined to be greater than 90% DC based on morphology and the expression of a CD1a+, CD1b+, CD1c+, CD3-, CD14-, CD16-, CD20-, CD40+, CD80+, CD83+, CD86+, MHC class II+phenotype assessed by flow cytometry.
(§1) Plastic non-adherent DC (1-2×10^6) were harvested from IL-4+GM-CSF cultures on days 7, 14, 21, and 28, and washed twice with HBSS. […] Peptide-pulsing (10 μM final peptide concentration) was allowed to proceed for 2 hours at 37° C., at which time, the cells were washed twice with HBSS, resuspended in 1 ml of AIM-V and irradiated (2500 rad) using a cesium source. Day 7 peptide-pulsed DC were used to "prime" freshly-thawed, autologous PBMC (plastic adherent depleted) responders at a 20:1 responder-to-stimulator ratio. Responding T cells were restimulated weekly (for 4 weeks) using irradiated, peptide-pulsed autologous DC at a 20:1 responder-to-restimulator ratio in AIM-V medium containing 60 IU/ml rhIL-2 (Chiron, Emeryville, Calif.).
(§2) Four hour chromium release assays were performed as described previously. Target cells were labeled with 100 μCi (Na2^51 CrO4, Dupont-New England Nuclear, Bedford, Mass.) at 37° C. for 1-2 hours prior to being washed three times with HBSS. 10^4 51 Cr-labeled cells were added to each target well±effector cells for 4 h, 37° C., 5% CO2 in a total volume of 200 μl.
Autologous, cultured d7 IL-4+GM-CSF PB-DC were pulsed with the indicated peptides for 2h at room temperature prior to washing and use as stimulators for CTL induction in vitro. […] 12 HLA-A2+ normal donors and 10 HLA-A2+ patients with metastatic melanoma were screened.
In parallel experiments, PBMC derived from 10 patients diagnosed with AJCC stage III or IV melanoma were stimulated with autologous DC pulsed with these same series of peptides.

Mel 624 [3] = assay: induction of anti-melanoma CTL from normal donor PBMC by peptide-pulsed autologous DC, lysis of Mel 624; format: cell-based, human; conditions: for Normal PBL Response (responders/donors): lysis of Mel 624 >20% at E:T 10:1, >80% inhibited by BB7.2; for lysis of Mel 624 by induced anti-melanoma CTL: E:T 10:1, normal donors; for Peak week of CTL reactivity, Normal PBL / number of stimulations to induce anti-melanoma CTL: normal donors
Experimental: Peripheral blood mononuclear cells ("PBMC") were obtained after density centrifugation on Ficoll-Hypaque gradients per the manufacturer's protocol (LSM, Organon-Teknika, Durham, N.C.). […] Non-adherent cells were frozen in liquid nitrogen in 90% fetal bovine serum/10% DMSO and were retained as T cell enriched responder populations. Plastic adherent cells were cultured for 5-7 days in AIM-V medium supplemented with 1000 U rIL-4/ml+1000 U rGM-CSF/ml at 37° C., 5% CO2 and served as the source of autologous dendritic cells. No medium was added or removed during this culture period. […] Gradient interface cells were harvested, washed with HBSS, and used in phenotypic and functional assays, as outlined below. Cells generated in this way were determined to be greater than 90% DC based on morphology and the expression of a CD1a+, CD1b+, CD1c+, CD3-, CD14-, CD16-, CD20-, CD40+, CD80+, CD83+, CD86+, MHC class II+phenotype assessed by flow cytometry.
as §1, §2
PBMC responder T cells derived from normal donors (n=12) were repetitively stimulated weekly for 1-4 weeks with irradiated, autologous cultured dendritic cells pre-pulsed with either no peptide or individually pulsed with the previously identified, HLA-A2-presented melanoma peptides listed in Table 9, below.
Autologous, cultured d7 IL-4+GM-CSF PB-DC were pulsed with the indicated peptides for 2h at room temperature prior to washing and use as stimulators for CTL induction in vitro. […] 12 HLA-A2+ normal donors and 10 HLA-A2+ patients with metastatic melanoma were screened. […] Peak week of CTL reactivity is noted in parentheses.

HLA-A2 [4] = target: T1, HLA-A2; conditions: reported by Cox et al.; cited from earlier work
GL1 CTL = format: cell-based, human
T2 target cells = assay: CTL lysis of p939-pulsed T2 target cells; format: cell-based, human; conditions: without exogenous β2 -m and MA2.1
Experimental: (§3) Peptide loading was facilitated by the presence of the β2 -m and MA2.1 reagents as described by Zeh, H. J., et al., Hum. […] The cells were then incubated for 2 hours at room temperature.

TIL 5403 = conditions: TIL 5403, data not shown
A42-clone = conditions: read-out: half-maximal sensitization for lysis, T2, E:T 10:1
Experimental: as §3

TIL 1235 = conditions: TIL 1235, data not shown
CTL clone A42 = conditions: CTL clone A42, data not shown
MCA205 fibrosarcoma = assay: in vivo therapy of established MCA205 tumors in C57BL/6 mice; set-up: species or system mouse; conditions: day 4 (but not day 8) tumor models
Experimental: Before being used in vaccines, DC were pulsed overnight with crude, unfractionated, acid-eluted peptides derived from relevant tumors or control syngeneic spleens. Peptide-pulsed DC were extensively washed and then irradiated (3,000 rads) before i.v. injection in the tail vein of tumor-bearing animals. In the fibrocarcinoma MCA205 and mammary adenocarcinoma TS/A tumor models, animals were injected three to four times, starting at day 4 or day 8 after tumor establishment and subsequently, every 4 days, with 3-5×10^5 DC pulsed with peptides. Alternatively, in the C3 tumor model, animals were injected on days 14, 21, and 28 after initial intradermal (i.d.) tumor inoculation.
1 million BM-DC were pulsed with peptides derived from 10^8 to 10^9 cells (tumor or spleen) in a total volume of 1-2 ml of DC media overnight at 37° C., 55 CO2. Splenocytes freshly harvested from B6 animals were used as a cellular source of irrelevant peptides.
Twice the minimal tumorigenic dose of tumor cells (2×10^5 MCA205, 10^5 TS/A, or 2×10^6 C3) were injected intradermally ("i.d.") in the right flank of mice. […] The mean tumor size was monitored biweekly. […]
50 μg of CTLA4-IgG1 was admixed with DC-MCA205 or DC-TS/A in vitro, and the mixture was then administered in the tail vein of tumor-bearing animals (three to four injections every 4 days). […] Depletion of CD4^+ and CD8^+ T cells was monitored by flow cytometry. […]

## Asp-Gly-Leu-Ala-Pro-Pro-Gln-His-Leu-Ile-Arg (DGLAPPQHLIR) [p53 186-196]
HLA-A2 [1]
  HLA-A2 stabilization / binding: stabilized HLA-A2 very poorly

## LLDGTATLRL [gp100 457-466]
Mel 624 [2]
  Patient PBL Response (responders/patients): 0/10
Mel 624 [3]
  Normal PBL Response (responders/donors): 0/12

## FLWGPRALV [MAGE-3]
Mel 624 [2]
  Patient PBL Response (responders/patients): 1/3
Mel 624 [2]; melanoma patients
  Peak week of CTL reactivity, Patient PBL: 3 wk
Mel 624 [3]
  Normal PBL Response (responders/donors): 0/4

## Tyr-Leu-Glu-Pro-Gly-Pro-Val-Thr-Ala [gp100 280-288]
HLA-A2 [1]
  HLA-A2 stabilization / binding: comparable
Mel 624 [2]
  Patient PBL Response (responders/patients): 8/10
Mel 624 [2]; melanoma patients
  Peak week of CTL reactivity, Patient PBL: 3-4 wk
  immunodominance by kinetics and magnitude of response: immunodominant epitopes
HLA-A2 [4]
  binding to HLA-A2: intermediate-to-low affinity
Mel 624 [3]
  lysis of Mel 624 by induced anti-melanoma CTL: greater than 20%
  Normal PBL Response (responders/donors): 9/12
  Peak week of CTL reactivity, Normal PBL: 3-4 wk
  number of stimulations to induce anti-melanoma CTL: 2-3 stimulations

## YMDGTMSQV [Tyrosinase 368-376]
Mel 624 [2]
  Patient PBL Response (responders/patients): 6/10
Mel 624 [3]
  lysis of Mel 624 by induced anti-melanoma CTL: greater than 20%
  Normal PBL Response (responders/donors): 7/12
  Peak week of CTL reactivity, Normal PBL: 3-4 wk
  number of stimulations to induce anti-melanoma CTL: 2-3 stimulations

## Lys-Gly-Ile-Leu-Gly-Phe-Val-Phe--Thr-Leu-Thr-Val [Flu M1]
GL1 CTL
  GL1 lysis of peptide-pulsed HLA-A2+ targets: lysed

## MLLAVLYCL [Tyrosinase 1-9]
Mel 624 [2]
  Patient PBL Response (responders/patients): 0/10
Mel 624 [3]
  Normal PBL Response (responders/donors): 1/12

## ILTVILGVL [p939]
HLA-A2 [1]
  HLA-A2 stabilization / binding: less effective; also recorded: low affinity
T2 target cells
  CTL reactivity over background: 5-10%
TIL 5403
  recognition and lysis of peptide-pulsed T2 cells: able to recognize and lyse T2 cells
Mel 624 [2]
  Patient PBL Response (responders/patients): 9/10
Mel 624 [2]; melanoma patients
  Peak week of CTL reactivity, Patient PBL: 3-4 wk
A42-clone
  EC50: ~3 nM
Mel 624 [3]
  Normal PBL Response (responders/donors): 9/12
  Peak week of CTL reactivity, Normal PBL: 3-4 wk
TIL 1235
  lowest dose with peptide-specific release of interferon-γ: 1 pM
CTL clone A42
  lowest dose with peptide-specific release of interferon-γ: 1 pM

B1: recombinant murine interleukin 12 (protein, UniProt P43431 23-215; P43432 23-335, looked up)
Interleukin-12 subunit alpha: RVIPVSGPARCLSQSRNLLKTTDDMVKTAREKLKHYSCTAEDIDHEDITRDQTSTLKTCLPLELHKNESCLATRETSSTTRGSCLPPQKTSLMMTLCLGSIYEDLKMYQTEFQAINAALQNHNHQQIILDKGMLVAIDELMQSLNHNGETLRQKPPVGEADPYRVKMKLCILLHAFSTRVVTINRVMGYLSSA
Interleukin-12 subunit beta: MWELEKDVYVVEVDWTPDAPGETVNLTCDTPEEDDITWTSDQRHGVIGSGKTLTITVKEFLDAGQYTCHKGGETLSHSHLLLHKKENGIWSTEILKNFKNKTFLKCEAPNYSGRFTCSWLVQRNMDLKFNIKSSSSSPDSRAVTCGMASLSAEKVTLDQRDYEKYSVSCQEDVTCPTAEETLPIELALEARQQNKYENYSTSFFIRDIIKPDPPKNLQMKPLKNSQVEVSWEYPDSWSTPHSYFSLKFFVRIQRKKEKMKETEEGCNQKGAFLVEKTSTEVQCKGGNVCVQAQDRYYNSSCSKWACVPCRVRS
MCA205 fibrosarcoma
  therapeutic effect alone: beneficial therapeutic effect
